# Literature values in US10729708B2, “Stabilized glycopeptide antibiotic formulations” (XELLIA PHARMACEUTICALS APS, priority 2016, dated 2020).
# Experiments:
# Conditions in all cases: QC strain, CLSI protocol
# [1] = test system: Staphylococcus aureus ATCC 29213
# [2] = test system: Streptococcus pnemoniae ATCC 49619
# [3] = test system: Enterococcus faecalis ATCC 29212
smiles,measurement,setting,value
CN[C@H](CC(C)C)C(=O)NC1C(=O)N[C@@H](CC(N)=O)C(=O)N[C@H]2C(=O)N[C@H]3C(=O)NC(C(=O)N[C@@H](C(=O)O)c4cc(O)cc(O)c4-c4cc3ccc4O)[C@H](O)c3ccc(c(Cl)c3)Oc3cc2cc(c3O[C@@H]2OC(CO)[C@@H](O)C(O)C2O[C@H]2CC(C)(N)[C@H](O)C(C)O2)Oc2ccc(cc2Cl)C1O.Cl (stereo partly drawn) [Vancomycin],Referent MIC ranges,[1],0.5 to 2 µg/mL
same,Referent MIC ranges,[2],0.125 to 0.5 µg/mL
same,Referent MIC ranges,[3],1 to 4 µg/mL
